Measured values reported in paper PMC5483587 (Frontiers in Microbiology, 2017).

System: T1, LkAlt1
T1 construct: ORF amplified from genomic DNA into pET-28a(+) (NheI/XhoI), His-tagged, E. coli Rosetta2(DE3), Ni-NTA; tag removal not mentioned; about 50 kDa on SDS-PAGE
Experiment: initial velocities at […] nm (lactate dehydrogenase/NADH coupled), global ping-pong fit
Assay type: biochemical, Lachancea kluyveri
Details: alanine varied 1-20 mM, α-ketoglutarate 0.05-1.50 mM; Tris-HCl about pH 7, 25°C; pyridoxal 5'-phosphate; ka/kb assigned to substrates by concentration ranges and text

Row | ka | Km | Compound
1 | 4.88 mM |  | C[C@H](N)C(=O)O [alanine]
2 |  | 220 µM | O=C(O)CCC(=O)C(=O)O [α-ketoglutarate]
